According to patent US8012975B2, “Antitumoral analogs of ET-743” (Pharma Mar, S.A., priority 2000, dated 2011):
pIC50: −log10 of the molar value. Like-named read-outs stand apart in the source and are kept apart here.

How the values were obtained:
[1] = in vitro; conditions: African green monkey
[2] = test system: HT-29
[3] = test system: MEL-28
[4] = test system: DU-145
[5] = test system: P-388
[6] = test system: A-549
[7] = test system: P-388; experiment: Cytotoxic activity IC50, P-388; conditions: Mus musculus, P388, read-out: CYTOTOXIC ACTIVITIY IC50 (μM) P-388
[8] = test system: DU-145; experiment: Cytotoxic activity IC50, DU-145; conditions: Homo sapiens, DU-145, read-out: CYTOTOXIC ACTIVITIY IC50 (μM) DU-145, DU-145
[9] = test system: A-549; experiment: Cytotoxic activity IC50, A-549; conditions: Homo sapiens, A549, read-out: CYTOTOXIC ACTIVITIY IC50 (μM) A-549, A-549
[10] = test system: MEL-28; experiment: Cytotoxic activity IC50, MEL-28; conditions: Homo sapiens, SK-MEL-28, read-out: CYTOTOXIC ACTIVITIY IC50 (μM) MEL-28, MEL-28

SMILES | pIC50 [2] | pIC50 [3] | pIC50 [4] | pIC50 [5] | pIC50 [6] | also measured
COC1=C(C)C(=O)C2=C(C1=O)[C@H](CNC(=O)C(C)N)N1C(C2)[C@H]2c3c(cc(C)c(OC)c3O)C[C@@H]([C@@H]1C#N)N2C (some centres unmarked) |  |  |  |  |  | pIC50 [1]: 7.64
COc1c(C)cc2c(c1O)[C@@H]1C3Cc4c(OC(C)=O)c(C)c5c(c4[C@H](CNC(=O)[C@H](C)NC(=O)/C=C/c4ccccc4)N3[C@@H](C#N)[C@H](C2)N1C)OCO5 (some centres unmarked) | 10.00 |  |  |  |  | 
COc1c(C)cc2c(c1O)[C@@H]1C3Cc4c(OC(C)=O)c(C)c5c(c4[C@H](CNC(=O)/C=C/c4ccccc4)N3[C@@H](O)[C@H](C2)N1C)OCO5 (some centres unmarked) [drawing 113] | 10.00 | 10.00 | 10.00 | 10.00 | 10.00 | 
CCCC(=O)OC[C@H]1c2c(c(OC(C)=O)c(C)c3c2OCO3)CC2[C@H]3c4c(cc(C)c(OC)c4OCOC)C[C@@H]([C@H](C#N)N21)N3C (some centres unmarked) [drawing 152] |  |  |  | 10.00 |  | pIC50 ([3]; human): 9.10; pIC50 ([4]; human): 9.10; pIC50 ([2]; human): 9.10; pIC50 ([6]; human): 9.10
COc1c(C)cc2c(c1O)[C@@H]1C3Cc4c(OC(C)=O)c(C)c5c(c4[C@H](CNC(=O)Cc4ccccc4)N3[C@@H](C#N)[C@H](C2)N1C)OCO5 (some centres unmarked) | 10.00 | 10.00 | 10.00 | 10.00 | 10.00 | 
COc1c(C)cc2c(c1O)[C@@H]1C3Cc4c(O)c(C)c5c(c4[C@H](CN4C(=O)c6ccccc6C4=O)N3[C@@H](C#N)[C@H](C2)N1C)OCO5 (some centres unmarked) |  |  |  |  |  | pIC50 [1]: 9.00
COc1c(C)cc2c(c1O)[C@@H]1C3Cc4c(OC(C)=O)c(C)c5c(c4[C@H](CNC(=O)[C@@H](C)NC(=O)CC(C)C)N3[C@@H](C#N)[C@H](C2)N1C)OCO5 (some centres unmarked) | 10.00 | 10.00 | 10.00 | 10.00 | 10.00 | 
COCOc1c(OC)c(C)cc2c1[C@@H]1C3CC4=C(C(=O)C(O)=C(C)C4=O)[C@H](CNC(C)=O)N3[C@@H](C#N)[C@H](C2)N1C (some centres unmarked) |  |  |  |  |  | pIC50 [1]: < 4.74
C=CCOC(=O)Oc1c(C)c2c(c3c1CC1[C@H]4c5c(cc(C)c(OC)c5O)C[C@@H]([C@H](O)N1[C@H]3CNC(=O)/C=C/c1ccccc1)N4C)OCO2 (some centres unmarked) | 10.00 | 10.00 | 10.00 | 10.00 | 10.00 | 
COc1c(C)cc2c(c1O)[C@@H]1C3Cc4c(OC(C)=O)c(C)c5c(c4[C@H](CNC(=O)CCc4ccccc4)N3[C@@H](O)[C@H](C2)N1C)OCO5 (some centres unmarked) [drawing 123] | 10.00 | 10.00 | 10.00 | 10.00 | 10.00 | 
COc1c(C)cc2c(c1O)[C@@H]1C3Cc4c(OC(C)=O)c(C)c5c(c4[C@H](COC(=O)/C=C/c4cccc(C(F)(F)F)c4)N3[C@@H](O)[C@H](C2)N1C)OCO5 (some centres unmarked) [drawing 157] | 10.00 | 10.00 | 10.00 | 10.00 | 10.00 | 
CCCCCC(=O)NC[C@H]1c2c(c(OC(C)=O)c(C)c3c2OCO3)CC2[C@H]3c4c(cc(C)c(OC)c4O)C[C@@H]([C@H](C#N)N21)N3C (some centres unmarked) [drawing 126] |  |  |  | 10.00 |  | 
C/C=C(\OC(C)=O)C1=C(C2=COCO2)[C@H](CNC(=O)CCC)N2C(C1)[C@H]1c3c(cc(C)c(OC)c3O)C[C@@H]([C@@H]2C#N)N1C (some centres unmarked) | 10.00 | 10.00 | 10.00 | 10.00 | 10.00 | 
COc1c(C)cc2c(c1O)[C@@H]1C3Cc4c(OC(C)=O)c(C)c5c(c4[C@H](COC(=O)CCc4ccccc4)N3[C@@H](O)[C@H](C2)N1C)OCO5 (some centres unmarked) [drawing 158] | 10.00 | 10.00 | 10.00 | 10.00 | 10.00 | 
COc1c(C)cc2c(c1O)[C@@H]1C3Cc4c(OC(C)=O)c(C)c5c(c4[C@H](CNC(=O)[C@H](C)NC(=O)C(F)(F)F)N3[C@@H](C#N)[C@H](C2)N1C)OCO5 (some centres unmarked) | 10.00 | 10.00 | 10.00 | 10.00 | 10.00 | 
C=CCOC(=O)Oc1c(C)c2c(c3c1CC1[C@H]4c5c(cc(C)c(OC)c5O)C[C@@H]([C@H](O)N1[C@H]3CNC(=O)CCc1ccccc1)N4C)OCO2 (some centres unmarked) | 10.00 | 10.00 | 10.00 | 10.00 | 10.00 | 
CCCC(=O)OC[C@H]1c2c(c(OC(C)=O)c(C)c3c2OCO3)CC2[C@H]3c4c(cc(C)c(OC)c4OCOC)C[C@@H]([C@H](C#N)N21)N3C (some centres unmarked) [drawing 148] |  |  |  |  |  | pIC50 ([3]; human): 7.00; pIC50 ([4]; human): 7.00; pIC50 ([2]; human): 7.00; IC50 [7]: 0.1 µM; pIC50 ([6]; human): 7.00

SMILES | pIC50 [2] | pIC50 [3] | pIC50 [4] | pIC50 [5] | pIC50 [6] | also measured
COc1c(C)cc2c(c1O)[C@@H]1C3Cc4c(OC(C)=O)c(C)c5c(c4[C@H](CNC(=O)[C@H](C)NC(=O)CCc4ccccc4)N3[C@@H](O)[C@H](C2)N1C)OCO5 (some centres unmarked) [drawing 135] | 10.00 | 10.00 | 10.00 | 10.00 | 10.00 | 
C/C=C/C(=O)NC[C@H]1c2c(c(OC(C)=O)c(C)c3c2OCO3)CC2[C@H]3c4c(cc(C)c(OC)c4O)C[C@@H]([C@H](O)N21)N3C (some centres unmarked) | 10.00 | 10.00 |  | 10.00 |  | IC50 [8]: 0.0008 µM; IC50 [9]: 0.0008 µM
COc1c(C)cc2c(c1O)[C@@H]1C3Cc4c(OC(C)=O)c(C)c5c(c4[C@H](COC(=O)/C=C/c4ccccc4)N3[C@@H](O)[C@H](C2)N1C)OCO5 (some centres unmarked) [drawing 159] |  |  |  | 10.00 |  | 
COc1c(C)cc2c(c1O)[C@@H]1C3Cc4c(OC(C)=O)c(C)c5c(c4[C@H](COC(=O)CCc4ccccc4)N3[C@@H](C#N)[C@H](C2)N1C)OCO5 (some centres unmarked) | 10.00 | 10.00 | 10.00 | 10.00 | 10.00 | 
CCC(=O)NC[C@H]1c2c(c(OC(C)=O)c(C)c3c2OCO3)CC2[C@H]3c4c(cc(C)c(OC)c4O)C[C@@H]([C@H](O)N21)N3C (some centres unmarked) [drawing 125] | 10.00 | 10.00 | 10.00 | 10.00 | 10.00 | 
COc1c(C)cc2c(c1O)[C@@H]1C3Cc4c(OC(C)=O)c(C)c5c(c4[C@H](CNC(=O)/C=C/c4cccc(C(F)(F)F)c4)N3[C@@H](C#N)[C@H](C2)N1C)OCO5 (some centres unmarked) | 10.00 | 10.00 | 10.00 | 10.00 | 10.00 | 
COc1c(C)cc2c(c1O)[C@@H]1C3Cc4c(OC(C)=O)c(C)c5c(c4[C@H](CNC(=O)[C@H](C)NC(=O)C(F)(F)F)N3[C@@H](O)[C@H](C2)N1C)OCO5 (some centres unmarked) [drawing 110] | 10.00 | 10.00 | 10.00 | 10.00 | 10.00 | 
CCCC(=O)OC[C@H]1c2c(c(OC(C)=O)c(C)c3c2OCO3)CC2[C@H]3c4c(cc(C)c(OC)c4O)C[C@@H]([C@H](O)N21)N3C (some centres unmarked) [drawing 156] | 10.00 | 10.00 | 10.00 | 10.00 | 10.00 | 
CCC(=O)NC[C@H]1c2c(c(OC(C)=O)c(C)c3c2OCO3)CC2[C@H]3c4c(cc(C)c(OC)c4O)C[C@@H]([C@H](C#N)N21)N3C (some centres unmarked) | 10.00 | 10.00 | 10.00 | 10.00 | 10.00 | 
CCC(=O)N[C@@H](C)C(=O)NC[C@H]1c2c(c(OC(C)=O)c(C)c3c2OCO3)CC2[C@H]3c4c(cc(C)c(OC)c4O)C[C@@H]([C@H](O)N21)N3C (some centres unmarked) [drawing 138] | 10.00 | 10.00 | 10.00 | 10.00 | 10.00 | 
C=CCOC(=O)Oc1c(C)c2c(c3c1CC1[C@H]4c5c(cc(C)c(OC)c5O)C[C@@H]([C@H](C#N)N1[C@H]3CNC(=O)/C=C/c1ccccc1)N4C)OCO2 (some centres unmarked) | 10.00 | 10.00 | 10.00 | 10.00 | 10.00 | 
C=CCOC(=O)Oc1c(C)c2c(c3c1CC1[C@H]4c5c(cc(C)c(OC)c5O)C[C@@H]([C@H](C#N)N1[C@H]3CNC(=O)CCc1ccccc1)N4C)OCO2 (some centres unmarked) | 10.00 | 10.00 | 10.00 | 10.00 | 10.00 | 
CCCC(=O)NC[C@H]1c2c(c(OC(C)=O)c(C)c3c2OCO3)CC2[C@H]3c4c(cc(C)c(OC)c4O)C[C@@H]([C@H](O)N21)N3C (some centres unmarked) [drawing 114] | 10.00 |  | 10.00 |  |  | IC50 [7]: 0.0008 µM; IC50 [10]: 0.0008 µM; IC50 [9]: 0.0008 µM
COc1c(C)cc2c(c1O)[C@@H]1C3Cc4c(OC(C)=O)c(C)c5c(c4[C@H](CNC(=O)[C@H](C)NC(=O)Cc4ccccc4)N3[C@@H](C#N)[C@H](C2)N1C)OCO5 (some centres unmarked) | 10.00 | 10.00 | 10.00 | 10.00 | 10.00 | 
C/C=C(\OC(C)=O)C1=C(C2=COCO2)[C@H](CNC(=O)/C=C/c2ccccc2)N2C(C1)[C@H]1c3c(cc(C)c(OC)c3O)C[C@@H]([C@@H]2C#N)N1C (some centres unmarked) | 10.00 | 10.00 | 10.00 | 10.00 | 10.00 | 
COc1c(C)cc2c(c1O)[C@@H]1C3Cc4c(OC(C)=O)c(C)c5c(c4[C@H](CNC(=O)CCc4ccccc4)N3[C@@H](C#N)[C@H](C2)N1C)OCO5 (some centres unmarked) | 10.00 | 10.00 | 10.00 | 10.00 | 10.00 | 
C/C=C/C(=O)NC[C@H]1c2c(c(OC(C)=O)c(C)c3c2OCO3)CC2[C@H]3c4c(cc(C)c(OC)c4O)C[C@@H]([C@H](C#N)N21)N3C (some centres unmarked) | 10.00 | 10.00 |  | 10.00 |  | IC50 [8]: 0.0008 µM; IC50 [9]: 0.0008 µM
